# Target: Recombinant human Syk (amino acids 342-635), GST-Syk kinase fusion protein (Homo sapiens (Human), UniProt P43405)
# Assay: Syk Kinase Test (Kinase Glo luminescence)
# Conditions: read-out: IC50-value, GST-Syk 4 nM final, ATP remaining, 60 minutes at room temperature
# Description: The catalytic activity of the GST-Syk kinase fusion protein was determined using the Kinase Glo® Luminescence Kinase test (Promega; V6712). In this homogeneous test the amount of ATP remaining after the kinase reaction is quantified by a luciferin-luciferase reaction using luminescence. The luminescence signal obtained correlates with the amount of ATP still present and thus correlates inversely with the activity of the protein kinase.
# GST-Syk was diluted to 6.0 nM in the test buffer and 10 μl of this dilution were used in the kinase test (final concentration of Syk=4 nM in a total volume of 15 μl).
# Positive controls are the reaction mixtures that contain no test substance; negative controls (blanks) are reaction mixtures that contain no kinase.
# After 60 minutes, 10 μl Kinase-Glo® solution (Promega, Cat. #V6712) (heated to room temperature) were added to each well and incubation was continued for a further 15 minutes. The plates were read in a Microplate Scintillation and Luminescence Counter (Canberra Packard GmbH).
# Data Evaluation and Calculation:
# The output file of the “Counter” is a text file that contains the well number and measured counts in two columns. […] Based on this values the % inherent value for the measurement of each substance concentration was calculated using an “MS-Excel—VB macro”. […] The IC50 values were calculated from the % inhibition values using “GraphPadPrism” software (Version 5) (GraphPad Software Inc.).
row,IC50,Compound
1,200 pM,"COc1cc(-c2cc3ncccc3c(O[C@H](C)[C@H]3CNC(=O)C3)n2)cc(OC)c1OC [Example 35, (R)-4-[(R)-1-[7-(3,4,5-Trimethoxy-phenyl)-[1,6]naphthyridin-5-yloxy]-ethyl]-pyrrolidin-2-one]"
2,16100 pM,COc1cc(-c2cc3ncccc3c(OC[C@H]3CNC(=O)C3)n2)cc(OC)c1OC1CCOCC1 [Example 44]
3,< 100 pM,COc1cc(-c2cc3ncccc3c(O[C@H](C)[C@H]3CNC(=O)C3)n2)ccc1OC1CCOCC1 [Example 63]

# Source: patent US8969568B2, “Substituted naphthyridines and their use as medicaments” (Boehringer Ingelheim Pharma GmbH & Co. KG, priority 2010, dated 2015)
